ChEMBL document CHEMBL5244205, “Discovery of tricyclic dipyrrolopyridine derivatives as novel JAK inhibitors” (Bioorg Med Chem, 2017)

Experiments:
[1] = Half life in Sprague-Dawley rat at 1 mg/kg, iv measured up to 24 hrs by LC-MS/MS analysis; format: ADME, organism-based; conditions: in vivo
[2] = AUC (0 to 24 hrs) in Sprague-Dawley rat at 1 mg/kg, po measured up to 24 hrs by LC-MS/MS analysis; format: ADME, organism-based; parameters: dose 1 mg/kg, time < 24 hrs, route po; conditions: in vivo
[3] = molecular target: Inhibitor of nuclear factor kappa-B kinase subunit beta (Homo sapiens, UniProt O14920); test: Inhibition of IKKB (unknown origin)
[4] = Cmax in Sprague-Dawley rat at 1 mg/kg, po measured up to 24 hrs by LC-MS/MS analysis; format: ADME, organism-based; parameters: time < 24 hrs, dose 1 mg/kg, route po; conditions: in vivo
[5] = molecular target: Tyrosine-protein kinase JAK2 (Homo sapiens, UniProt O60674)
Description: Inhibition of human JAK2 kinase domain using biotin-Lyn-substrate-2 as substrate incubated for 1 hr by ELISA

[6] = molecular target: Tyrosine-protein kinase BTK (Homo sapiens, UniProt Q06187); test: Inhibition of BTK (unknown origin)
[7] = molecular target: High affinity nerve growth factor receptor (Homo sapiens, UniProt P04629); test: Inhibition of TRKA (unknown origin)
Ephrin type-A receptor 2 = Ephrin type-A receptor 2 (Homo sapiens, UniProt P29317); test: Inhibition of EphA2 (unknown origin)
[8] = molecular target: Tyrosine-protein kinase ABL1 (Homo sapiens, UniProt P00519); test: Inhibition of ABL (unknown origin)
[9] = molecular target: MAP kinase-activated protein kinase 2 (Homo sapiens, UniProt P49137); test: Inhibition of MAPKAPK2 (unknown origin)
[10] = AUC (0 to 24 hrs) in Sprague-Dawley rat at 1 mg/kg, iv measured up to 24 hrs by LC-MS/MS analysis; format: ADME, organism-based; parameters: dose 1 mg/kg, time < 24 hrs, route iv; conditions: in vivo
[11] = molecular target: Insulin-like growth factor 1 receptor (Homo sapiens, UniProt P08069); test: Inhibition of IGF1R (unknown origin)
[12] = molecular target: Mitogen-activated protein kinase kinase kinase 1 (Homo sapiens, UniProt Q13233); test: Inhibition of MAP3K1 (unknown origin)
[13] = molecular target: Calcium/calmodulin-dependent protein kinase type II subunit alpha (Homo sapiens, UniProt Q9UQM7); test: Inhibition of CAMK2alpha (unknown origin)
[14] = molecular target: Casein kinase I isoform delta (Homo sapiens, UniProt P48730); test: Inhibition of CHKdelta (unknown origin)
[15] = molecular target: Tyrosine-protein kinase JAK1 (Homo sapiens, UniProt P23458)
Description: Inhibition of human JAK1 kinase domain using biotin-Lyn-substrate-2 as substrate incubated for 1 hr by ELISA

Cytochrome P450 3A4 = Cytochrome P450 3A4 (Homo sapiens, UniProt P08684); conditions: microsomes, 20 min, 5 µM
[16] = pampa, pH 6.5, 2 h
Description: Permeability of the compound in pH 6.5 incubated for 2 hrs by PAMPA based HPLC analysis

[17] = molecular target: Proto-oncogene tyrosine-protein kinase Src (Homo sapiens, UniProt P12931); test: Inhibition of SRC (unknown origin)
[18] = molecular target: Glycogen synthase kinase-3 beta (Homo sapiens, UniProt P49841); test: Inhibition of GSK3beta (unknown origin)
[19] = molecular target: Serine/threonine-protein kinase Chk1 (Homo sapiens, UniProt O14757); test: Inhibition of CHK1 (unknown origin)
[20] = Inhibition of SYK (unknown origin); parameters: species or system Homo sapiens
[21] = molecular target: RAC-alpha serine/threonine-protein kinase (Homo sapiens, UniProt P31749); test: Inhibition of AKT1 (unknown origin)
Aurora kinase C = Aurora kinase C (Homo sapiens, UniProt Q9UQB9); test: Inhibition of AURC (unknown origin)
[22] = molecular target: Mitogen-activated protein kinase 11 (Homo sapiens, UniProt Q15759); test: Inhibition of P38beta (unknown origin)
[23] = molecular target: Tyrosine-protein kinase CSK (Homo sapiens, UniProt P41240); test: Inhibition of CSK (unknown origin)
[24] = molecular target: Cyclin-dependent kinase 2 (Homo sapiens, UniProt P24941); test: Inhibition of CDK2 (unknown origin)
[25] = Tmax in Sprague-Dawley rat at 1 mg/kg, po measured up to 24 hrs by LC-MS/MS analysis; format: ADME, organism-based; conditions: in vivo
Angiopoietin-1 receptor = Angiopoietin-1 receptor (Homo sapiens, UniProt Q02763); test: Inhibition of TIE2 (unknown origin)
[26] = Oral availability in Sprague-Dawley rat at 1 mg/kg measured up to 24 hrs by LC-MS/MS analysis; format: ADME, organism-based; conditions: in vivo
cells = conditions: Rattus norvegicus, Lewis, Splenocyte, 72 h
Description: Immunosuppressive activity in Lewis rat splenocytes assessed as inhibition of concanavalin A-induced IL-2 receptor expression incubated for 3 days by alamarBlue assay

[27] = Clearance in Sprague-Dawley rat at 1 mg/kg, iv measured up to 24 hrs by LC-MS/MS analysis; format: ADME, organism-based; conditions: in vivo
[28] = molecular target: Bone morphogenetic protein receptor type-1A (Homo sapiens, UniProt P36894); test: Inhibition of BMPR1A (unknown origin)
Rattus norvegicus [29] = test: Immunosuppressive activity in Lewis rat transplanted with ACI rat cardiac tissue assessed as reduction in graft rejection by measuring mean survival days at 0.5 mg/kg, po administered for 14 consecutive days co-treated with tacrolimus (reference value: 10 days); format: functional; conditions: time 14 day
Rattus norvegicus [30] = test: Immunosuppressive activity in Lewis rat transplanted with ACI rat cardiac tissue assessed as reduction in graft rejection by measuring mean survival days at 0.25 mg/kg, po administered for 14 consecutive days co-treated with tacrolimus (reference value: 10 days); format: functional; conditions: time 14 day
[31] = molecular target: Tyrosine-protein kinase ITK/TSK (Homo sapiens, UniProt Q08881); test: Inhibition of ITK (unknown origin)
[32] = molecular target: Mitogen-activated protein kinase 8 (Homo sapiens, UniProt P45983); test: Inhibition of JNK1 (unknown origin)
[33] = molecular target: Ribosomal protein S6 kinase beta-1 (Homo sapiens, UniProt P23443); test: Inhibition of p70S6K (unknown origin)
[34] = molecular target: RAF proto-oncogene serine/threonine-protein kinase (Homo sapiens, UniProt P04049); test: Inhibition of RAF1 (unknown origin)
[35] = molecular target: Tyrosine-protein kinase ZAP-70 (Homo sapiens, UniProt P43403); test: Inhibition of ZAP70 (unknown origin)
Rattus norvegicus [36] = test: Immunosuppressive activity in Lewis rat transplanted with ACI rat cardiac tissue assessed as reduction in graft rejection by measuring mean survival days at 0.1 mg/kg, po administered for 14 consecutive days co-treated with tacrolimus (reference value: 10 days); format: functional; conditions: time 14 day

Chain of Glycogen synthase kinase-3 beta (P49841 whole entry): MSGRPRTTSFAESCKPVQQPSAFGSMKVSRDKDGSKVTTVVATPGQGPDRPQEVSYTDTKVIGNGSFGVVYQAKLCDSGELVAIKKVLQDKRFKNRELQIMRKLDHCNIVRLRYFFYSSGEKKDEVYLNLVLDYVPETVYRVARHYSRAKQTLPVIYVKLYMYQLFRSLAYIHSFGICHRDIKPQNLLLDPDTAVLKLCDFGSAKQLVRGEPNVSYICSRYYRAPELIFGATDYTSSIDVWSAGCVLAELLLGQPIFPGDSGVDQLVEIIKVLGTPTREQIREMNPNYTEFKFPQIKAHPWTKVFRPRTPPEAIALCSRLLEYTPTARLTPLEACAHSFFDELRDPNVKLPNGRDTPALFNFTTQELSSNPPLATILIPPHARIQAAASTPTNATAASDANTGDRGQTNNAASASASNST
Chain of Aurora kinase C (Q9UQB9 whole entry): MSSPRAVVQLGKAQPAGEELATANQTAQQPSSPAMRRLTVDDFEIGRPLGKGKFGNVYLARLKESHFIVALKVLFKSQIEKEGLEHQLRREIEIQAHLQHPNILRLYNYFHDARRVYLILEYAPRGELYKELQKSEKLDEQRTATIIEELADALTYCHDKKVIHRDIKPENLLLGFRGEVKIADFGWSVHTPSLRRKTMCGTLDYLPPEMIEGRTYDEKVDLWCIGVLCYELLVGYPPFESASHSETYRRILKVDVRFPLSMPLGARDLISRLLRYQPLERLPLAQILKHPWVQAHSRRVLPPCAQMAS
Chain of Tyrosine-protein kinase ITK/TSK (Q08881 whole entry): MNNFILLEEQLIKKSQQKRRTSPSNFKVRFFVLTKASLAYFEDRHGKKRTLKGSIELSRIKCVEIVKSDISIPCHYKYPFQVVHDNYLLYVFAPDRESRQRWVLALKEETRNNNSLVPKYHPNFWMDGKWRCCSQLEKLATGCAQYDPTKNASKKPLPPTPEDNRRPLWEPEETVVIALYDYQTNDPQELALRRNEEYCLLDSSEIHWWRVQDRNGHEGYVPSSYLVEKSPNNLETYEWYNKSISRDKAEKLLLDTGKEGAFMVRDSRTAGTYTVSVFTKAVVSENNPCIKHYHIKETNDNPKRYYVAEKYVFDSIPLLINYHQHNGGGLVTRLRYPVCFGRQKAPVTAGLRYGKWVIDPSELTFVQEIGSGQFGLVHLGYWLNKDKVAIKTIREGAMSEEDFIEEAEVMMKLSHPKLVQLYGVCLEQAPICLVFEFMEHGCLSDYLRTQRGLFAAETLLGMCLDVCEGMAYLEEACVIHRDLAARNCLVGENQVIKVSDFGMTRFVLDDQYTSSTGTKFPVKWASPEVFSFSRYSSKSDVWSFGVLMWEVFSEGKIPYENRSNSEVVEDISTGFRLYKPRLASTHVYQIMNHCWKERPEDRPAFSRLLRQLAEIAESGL
Chain of Ephrin type-A receptor 2 (P29317 whole entry): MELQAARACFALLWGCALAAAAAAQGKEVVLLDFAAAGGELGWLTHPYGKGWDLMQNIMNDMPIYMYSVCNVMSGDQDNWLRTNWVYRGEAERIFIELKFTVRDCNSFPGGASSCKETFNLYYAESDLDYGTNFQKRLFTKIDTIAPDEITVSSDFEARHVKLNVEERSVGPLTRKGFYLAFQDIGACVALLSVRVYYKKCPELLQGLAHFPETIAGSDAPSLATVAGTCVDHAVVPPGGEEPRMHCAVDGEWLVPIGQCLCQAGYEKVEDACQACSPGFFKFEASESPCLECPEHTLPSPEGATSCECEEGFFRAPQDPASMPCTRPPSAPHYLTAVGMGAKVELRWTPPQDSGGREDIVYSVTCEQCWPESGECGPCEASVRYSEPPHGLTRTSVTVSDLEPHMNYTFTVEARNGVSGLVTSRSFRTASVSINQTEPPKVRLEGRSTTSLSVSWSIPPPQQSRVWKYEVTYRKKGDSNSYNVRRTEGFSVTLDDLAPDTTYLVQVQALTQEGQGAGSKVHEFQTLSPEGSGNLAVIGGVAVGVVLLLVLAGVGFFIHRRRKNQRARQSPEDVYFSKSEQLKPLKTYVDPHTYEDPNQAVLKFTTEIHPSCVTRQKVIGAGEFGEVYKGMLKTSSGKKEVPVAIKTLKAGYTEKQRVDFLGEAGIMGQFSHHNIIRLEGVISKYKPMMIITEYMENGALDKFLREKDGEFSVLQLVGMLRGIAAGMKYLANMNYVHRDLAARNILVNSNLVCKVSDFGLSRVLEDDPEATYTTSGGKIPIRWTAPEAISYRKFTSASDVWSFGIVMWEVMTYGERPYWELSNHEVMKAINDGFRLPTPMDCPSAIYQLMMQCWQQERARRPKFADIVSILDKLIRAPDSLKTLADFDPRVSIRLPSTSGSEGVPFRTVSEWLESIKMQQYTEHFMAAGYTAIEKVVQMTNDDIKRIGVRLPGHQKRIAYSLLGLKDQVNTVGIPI
Chain of Tyrosine-protein kinase JAK2 (O60674 whole entry): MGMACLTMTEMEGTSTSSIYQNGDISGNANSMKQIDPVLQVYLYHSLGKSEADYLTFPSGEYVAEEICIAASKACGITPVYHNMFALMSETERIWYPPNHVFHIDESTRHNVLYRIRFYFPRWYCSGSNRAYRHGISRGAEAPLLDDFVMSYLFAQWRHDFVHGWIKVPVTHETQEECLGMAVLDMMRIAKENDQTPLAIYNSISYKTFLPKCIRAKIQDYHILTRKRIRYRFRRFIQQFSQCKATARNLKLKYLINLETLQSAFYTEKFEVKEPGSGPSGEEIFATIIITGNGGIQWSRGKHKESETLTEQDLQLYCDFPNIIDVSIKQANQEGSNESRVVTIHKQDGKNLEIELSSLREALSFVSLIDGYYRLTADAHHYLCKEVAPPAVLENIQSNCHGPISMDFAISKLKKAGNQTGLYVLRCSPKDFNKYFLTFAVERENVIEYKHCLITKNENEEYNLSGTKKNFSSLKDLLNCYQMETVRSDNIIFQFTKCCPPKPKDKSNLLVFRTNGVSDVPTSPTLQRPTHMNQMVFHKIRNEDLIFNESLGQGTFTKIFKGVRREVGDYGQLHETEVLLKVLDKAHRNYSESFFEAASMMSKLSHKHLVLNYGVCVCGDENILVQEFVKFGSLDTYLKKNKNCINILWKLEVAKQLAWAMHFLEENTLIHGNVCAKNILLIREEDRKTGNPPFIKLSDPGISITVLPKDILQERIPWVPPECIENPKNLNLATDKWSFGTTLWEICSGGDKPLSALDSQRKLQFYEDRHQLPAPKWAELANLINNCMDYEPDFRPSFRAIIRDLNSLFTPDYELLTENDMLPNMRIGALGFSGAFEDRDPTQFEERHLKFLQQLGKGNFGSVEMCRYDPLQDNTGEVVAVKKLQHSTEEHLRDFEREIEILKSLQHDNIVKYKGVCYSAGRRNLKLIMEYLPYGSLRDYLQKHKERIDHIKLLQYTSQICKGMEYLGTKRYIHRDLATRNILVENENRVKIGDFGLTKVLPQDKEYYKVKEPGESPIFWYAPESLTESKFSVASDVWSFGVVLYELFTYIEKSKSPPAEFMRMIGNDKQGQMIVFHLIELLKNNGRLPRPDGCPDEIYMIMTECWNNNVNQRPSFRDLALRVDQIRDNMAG
Chain of Tyrosine-protein kinase BTK (Q06187 whole entry): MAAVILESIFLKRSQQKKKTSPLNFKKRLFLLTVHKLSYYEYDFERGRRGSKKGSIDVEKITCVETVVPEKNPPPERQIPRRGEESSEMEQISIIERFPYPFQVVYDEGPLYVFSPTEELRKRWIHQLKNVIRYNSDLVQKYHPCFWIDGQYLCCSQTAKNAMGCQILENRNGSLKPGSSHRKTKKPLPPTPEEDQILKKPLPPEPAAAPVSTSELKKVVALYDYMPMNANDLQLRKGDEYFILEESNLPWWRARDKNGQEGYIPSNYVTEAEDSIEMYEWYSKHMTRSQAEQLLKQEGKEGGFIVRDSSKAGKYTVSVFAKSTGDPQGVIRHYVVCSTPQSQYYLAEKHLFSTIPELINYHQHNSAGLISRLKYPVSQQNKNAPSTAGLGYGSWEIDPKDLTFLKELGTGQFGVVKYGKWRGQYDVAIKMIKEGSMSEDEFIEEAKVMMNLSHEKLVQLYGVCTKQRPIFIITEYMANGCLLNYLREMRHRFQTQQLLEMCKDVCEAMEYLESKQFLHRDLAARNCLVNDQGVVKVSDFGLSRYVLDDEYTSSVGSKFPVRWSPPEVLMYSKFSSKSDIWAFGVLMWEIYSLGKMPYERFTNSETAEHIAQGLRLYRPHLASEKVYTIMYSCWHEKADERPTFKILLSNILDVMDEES
Chain of Mitogen-activated protein kinase 11 (Q15759 whole entry): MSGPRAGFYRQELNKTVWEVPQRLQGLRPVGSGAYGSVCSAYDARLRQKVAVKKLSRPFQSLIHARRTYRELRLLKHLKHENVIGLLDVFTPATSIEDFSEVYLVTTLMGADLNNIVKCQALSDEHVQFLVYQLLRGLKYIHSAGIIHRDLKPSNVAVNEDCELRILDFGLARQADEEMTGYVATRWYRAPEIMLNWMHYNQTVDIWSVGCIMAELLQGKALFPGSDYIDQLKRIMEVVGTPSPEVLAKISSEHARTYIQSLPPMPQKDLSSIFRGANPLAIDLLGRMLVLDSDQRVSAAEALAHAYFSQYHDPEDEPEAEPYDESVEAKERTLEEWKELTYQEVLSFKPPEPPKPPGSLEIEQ
Chain of MAP kinase-activated protein kinase 2 (P49137 whole entry): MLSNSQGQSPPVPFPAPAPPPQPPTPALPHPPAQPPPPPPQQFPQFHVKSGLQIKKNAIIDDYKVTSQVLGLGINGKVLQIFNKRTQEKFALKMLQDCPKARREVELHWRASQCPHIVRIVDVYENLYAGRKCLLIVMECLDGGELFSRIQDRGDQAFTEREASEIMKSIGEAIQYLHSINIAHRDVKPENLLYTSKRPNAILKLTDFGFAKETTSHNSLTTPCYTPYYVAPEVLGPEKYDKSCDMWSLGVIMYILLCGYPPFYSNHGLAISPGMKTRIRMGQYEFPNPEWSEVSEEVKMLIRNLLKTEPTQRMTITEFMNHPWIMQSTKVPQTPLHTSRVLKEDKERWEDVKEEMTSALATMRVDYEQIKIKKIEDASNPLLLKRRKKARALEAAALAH

Question: With `C[C@@H]1CCN(C(=O)CC#N)C[C@@H]1n1ccc2cnc3[nH]ccc3c21` as the compound, how does the half-life [1] read?
Answer: Its half-life is 1.64 h.

Question: What about the AUC(0-t) at 24 h [2] of the same compound?
Answer: Its AUC(0-t) at 24 h is 917 ng·h/mL.

Question: And the IC50 [3]?
Answer: Its IC50 is greater than 1000 nM.

Question: What about the Cmax [4] of the same compound?
Answer: Its Cmax is 260 ng/mL.

Question: What about the IC50 [5] of the same compound?
Answer: The IC50 was 0.3 nM.

Question: And the IC50 [6]?
Answer: The IC50 was greater than 1000 nM.

Question: And the IC50 [7]?
Answer: Its IC50 is greater than 1000 nM.

Question: What about the IC50 (Ephrin type-A receptor 2) of the same compound?
Answer: The IC50 was greater than 1000 nM.

Question: And the IC50 [8]?
Answer: Its IC50 is greater than 1000 nM.

Question: And the IC50 [9]?
Answer: Its IC50 is greater than 1000 nM.

Question: What about the AUC(0-t) at 24 h [10] of the same compound?
Answer: The AUC(0-t) at 24 h was 889 ng·h/mL.

Question: What about the IC50 [11] of the same compound?
Answer: Its IC50 is greater than 1000 nM.

Question: And the IC50 [12]?
Answer: The IC50 was greater than 1000 nM.

Question: What about the IC50 [13] of the same compound?
Answer: The IC50 was greater than 1000 nM.

Question: And the IC50 [14]?
Answer: The IC50 was greater than 1000 nM.

Question: And the IC50 [15]?
Answer: The IC50 was 0.46 nM.

Question: What about the TDI (Cytochrome P450 3A4) of the same compound?
Answer: Its TDI is 89%.

Question: And the permeability [16]?
Answer: The permeability was 20 10^-6 cm/s.

Question: What about the IC50 [17] of the same compound?
Answer: Its IC50 is greater than 1000 nM.

Question: What about the IC50 [18] of the same compound?
Answer: Its IC50 is greater than 1000 nM.

Question: What about the IC50 [19] of the same compound?
Answer: The IC50 was greater than 1000 nM.

Question: And the IC50 [20]?
Answer: The IC50 was greater than 1000 nM.

Question: What about the IC50 [21] of the same compound?
Answer: The IC50 was greater than 1000 nM.

Question: What about the IC50 (Aurora kinase C) of the same compound?
Answer: Its IC50 is greater than 1000 nM.

Question: And the IC50 [22]?
Answer: The IC50 was greater than 1000 nM.

Question: And the IC50 [23]?
Answer: The IC50 was greater than 1000 nM.

Question: And the IC50 [24]?
Answer: Its IC50 is greater than 1000 nM.

Question: What about the Tmax [25] of the same compound?
Answer: The Tmax was 0.5 h.

Question: What about the IC50 (Angiopoietin-1 receptor) of the same compound?
Answer: Its IC50 is greater than 1000 nM.

Question: And the bioavailability [26]?
Answer: Its bioavailability is 103%.

Question: What about the IC50 (cells) of the same compound?
Answer: Its IC50 is 4.3 nM.

Question: And the clearance [27]?
Answer: Its clearance is 18.8 mL/min/kg.

Question: And the IC50 [28]?
Answer: Its IC50 is greater than 1000 nM.

Question: What about the MST (Rattus norvegicus [29]) of the same compound?
Answer: The MST was 21 days.

Question: What about the MST (Rattus norvegicus [30]) of the same compound?
Answer: Its MST is 21 days.

Question: And the IC50 [31]?
Answer: The IC50 was greater than 1000 nM.

Question: What about the IC50 [32] of the same compound?
Answer: Its IC50 is greater than 1000 nM.

Question: What about the IC50 [33] of the same compound?
Answer: Its IC50 is greater than 1000 nM.

Question: And the IC50 [34]?
Answer: The IC50 was greater than 1000 nM.

Question: What about the IC50 [35] of the same compound?
Answer: The IC50 was greater than 1000 nM.

Question: What about the MST (Rattus norvegicus [36]) of the same compound?
Answer: The MST was 9 days.
